Laboratory results from article PMC7163368 (British Journal of Clinical Pharmacology, 2020).
“And” between values parts separate entries of the source, which are not always exact repeats. Equal values may be shown once.

How the values were obtained:
[1] = Plasma pharmacokinetics of parenterally administered dutogliptin; type: in vivo, human; settings: for AUC / AUC(0-inf) / Tmax / k el / half-life / bioavailability: human, plasma
DPP‐IV [2] = settings: oral administration of 400 mg; cited from earlier work
DPP‐IV [3] = target: DPP‐IV (Homo sapiens, UniProt P27487); experiment: Plasma DPP-IV activity; type: in vivo; settings: for Post‐dose DPP‐IV activity over 24 hours: day 0, mean
[4] = 30 mg i.v. (n = 5), day 0, mean (SD)
[5] = 30 mg s.c. (n = 5), day 0, mean (SD)
[6] = 60 mg s.c. (n = 10), day 0, mean (SD)
[7] = 90 mg s.c. (n = 10), day 0, mean (SD)
[8] = 120 mg s.c. (n = 10), day 0, mean (SD)

Chain of DPP‐IV (Homo sapiens, UniProt P27487) (P27487 39-766): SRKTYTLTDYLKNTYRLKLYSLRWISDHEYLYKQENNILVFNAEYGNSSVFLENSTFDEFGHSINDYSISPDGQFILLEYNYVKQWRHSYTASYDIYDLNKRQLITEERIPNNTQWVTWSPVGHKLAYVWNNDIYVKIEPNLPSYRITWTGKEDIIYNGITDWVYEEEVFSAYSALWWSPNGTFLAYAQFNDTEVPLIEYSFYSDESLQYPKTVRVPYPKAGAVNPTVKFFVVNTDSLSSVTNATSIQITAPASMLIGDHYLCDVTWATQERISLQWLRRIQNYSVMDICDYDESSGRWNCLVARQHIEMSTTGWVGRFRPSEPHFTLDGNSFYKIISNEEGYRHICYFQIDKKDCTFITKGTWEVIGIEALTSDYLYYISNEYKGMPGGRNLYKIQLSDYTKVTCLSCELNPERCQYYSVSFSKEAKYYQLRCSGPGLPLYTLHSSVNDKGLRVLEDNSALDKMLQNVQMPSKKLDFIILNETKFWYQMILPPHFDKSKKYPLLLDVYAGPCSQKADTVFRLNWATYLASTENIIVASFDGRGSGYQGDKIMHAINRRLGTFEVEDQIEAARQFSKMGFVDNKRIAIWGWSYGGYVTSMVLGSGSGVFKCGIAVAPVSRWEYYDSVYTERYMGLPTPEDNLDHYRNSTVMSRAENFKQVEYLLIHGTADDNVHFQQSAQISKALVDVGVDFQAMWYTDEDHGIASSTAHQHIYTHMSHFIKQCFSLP

O=C(CN[C@@H]1CCNC1)N1CCC[C@H]1B(O)O [dutogliptin]
Peak plasma concentration [1, 4]: 2352 (211) ng/mL | Peak plasma concentration [1, 5]: 1232 (97) ng/mL | Peak plasma concentration [1, 6]: 2757 (517) ng/mL | Peak plasma concentration [1, 7]: 3641 (672) ng/mL | Peak plasma concentration [1, 8]: 5093 ng/mL and 5093 (873) ng/mL | Increase in maximal plasma levels ([1]; 120 mg s.c. compared to 500 mg orally administered dutogliptin): > 6 fold | Maximum plasma concentration ([1]; 120 mg s.c. multiple dose, day 6 (n = 5), SD: 544): 6024 ng/mL | AUC ([1]; iv, 30 mg): 4080 ng·h/mL | AUC(0-inf) ([1]; iv, 30 mg): 4090 ng·h/mL | Tmax ([1]; iv, 30 mg): 0.08 h | k el ([1]; iv, 30 mg): 5.56e-05 s⁻¹ | half-life ([1]; iv, 30 mg, T1/2, 30 mg i.v. (n = 5), day 0, mean (SD)): 3.68 h | bioavailability ([1]; sc): ~100% | AUC ([1]; sc, 30 mg): 4050 ng·h/mL | AUC(0-inf) ([1]; sc, 30 mg): 4060 ng·h/mL | Tmax ([1]; sc, 30 mg): 0.7 h | bioavailability ([1]; sc, 30 mg): 99% | k el ([1]; sc, 30 mg): 5.83e-05 s⁻¹ | half-life ([1]; sc, 30 mg, T1/2, 30 mg s.c. (n = 5), day 0, mean (SD)): 3.37 h | AUC ([1]; sc, 60 mg): 9060 ng·h/mL | AUC(0-inf) ([1]; sc, 60 mg): 9110 ng·h/mL | Tmax ([1]; sc, 60 mg): 0.85 h | bioavailability ([1]; sc, 60 mg): 109% | k el ([1]; sc, 60 mg): 5.56e-05 s⁻¹ | half-life ([1]; sc, 60 mg, T1/2, 60 mg s.c. (n = 10), day 0, mean (SD)): 3.58 h | AUC ([1]; sc, 90 mg): 12200 ng·h/mL | AUC(0-inf) ([1]; sc, 90 mg): 12200 ng·h/mL | Tmax ([1]; sc, 90 mg): 0.85 h | bioavailability ([1]; sc, 90 mg): 96% | k el ([1]; sc, 90 mg): 5.56e-05 s⁻¹ | half-life ([1]; sc, 90 mg, T1/2, 90 mg s.c. (n = 10), day 0, mean (SD)): 3.64 h | AUC ([1]; sc, 120 mg): 17200 ng·h/mL | AUC(0-inf) ([1]; sc, 120 mg): 17300 ng·h/mL | Tmax ([1]; sc, 120 mg): 0.9 h | bioavailability ([1]; sc, 120 mg): 95% | k el ([1]; sc, 120 mg): 5.83e-05 s⁻¹ | half-life ([1]; sc, 120 mg, T1/2, 120 mg s.c. (n = 10), day 0, mean (SD)): 3.32 h | half-life ([1]; sc, Half‐life, subcutaneous injection, pooled, SD: 0.46): 3.49 h | Accumulation of the study drug ([1]; multiple injections at daily intervals): did not lead to the accumulation of the study drug | Inhibition of DPP‐IV activity (DPP‐IV [2]): approximately 85% | Post‐dose DPP‐IV activity over 24 hours (DPP‐IV [3]; 30 mg i.v. (n = 5)): 37.83% | AUEC0‐24h (DPP‐IV [3]; [4]): 908 (149) %*h | Lowest DPP‐IV activity (DPP‐IV [3]; [4]): 7.63 (0.95) % | Time to maximum DPP‐IV inhibition (DPP‐IV [3]; 30 mg intravenous): 0.5 h | Post‐dose DPP‐IV activity over 24 hours (DPP‐IV [3]; 30 mg s.c. (n = 5)): 35.36% | AUEC0‐24h (DPP‐IV [3]; [5]): 849 (74) %*h | Lowest DPP‐IV activity (DPP‐IV [3]; [5]): 8.03 (1.76) % | Time to lowest DPP‐IV activity (DPP‐IV [3]; 30 mg subcutaneous): ≤ 2 h | Post‐dose DPP‐IV activity over 24 hours (DPP‐IV [3]; 60 mg s.c. (n = 10)): 22.42% | AUEC0‐24h (DPP‐IV [3]; [6]): 538 (44) %*h | Lowest DPP‐IV activity (DPP‐IV [3]; [6]): 7.67 (1.18) % | Time to lowest DPP‐IV activity (DPP‐IV [3]; 60 mg subcutaneous): ≤ 2 h | Post‐dose DPP‐IV activity over 24 hours (DPP‐IV [3]; 90 mg s.c. (n = 10)): 20.46% | AUEC0‐24h (DPP‐IV [3]; [7]): 491 (86) %*h | Lowest DPP‐IV activity (DPP‐IV [3]; [7]): 7.58 (1.17) % | Time to lowest DPP‐IV activity (DPP‐IV [3]; 90 mg subcutaneous): ≤ 4 h | Post‐dose DPP‐IV activity over 24 hours (DPP‐IV [3]; 120 mg s.c. (n = 10)): 17.96% | AUEC0‐24h (DPP‐IV [3]; [8]): 431 (93) %*h | DPP‐IV inhibition over 24 hours (DPP‐IV [3]; 120 mg s.c. multiple doses, day 6): 86% and > 86% | Maximum AUEC0‐24h (DPP‐IV [3]; 120 mg s.c. multiple dosing cohort, day 6, SD: 73): 342 h % | Time to lowest DPP‐IV activity (DPP‐IV [3]; 120 mg subcutaneous): ≤ 4 h | DPP‐IV activity reduced to (DPP‐IV [3]; all participants receiving 60 mg or more subcutaneously): < 10% | Maximum DPP‐IV inhibition (DPP‐IV [3]; all subjects receiving ≥60 mg): > 90% | Lowest DPP‐IV activity (DPP‐IV [3]; day 0, subcutaneous administration overall, SD: 1.60): 7.19%
